Test results taken from patent US9624233B2, “Compounds for treating pruritic conditions” (priority 2015, dated 2017).

How the values were obtained:
GR (h) = molecular target: T1, GR (h) (Homo sapiens, UniProt P04150); assay: Abuse liability binding screen, GR (h) (agonist radioligand); details: 2.5E−05M
T1 sequence (P04150 1-777): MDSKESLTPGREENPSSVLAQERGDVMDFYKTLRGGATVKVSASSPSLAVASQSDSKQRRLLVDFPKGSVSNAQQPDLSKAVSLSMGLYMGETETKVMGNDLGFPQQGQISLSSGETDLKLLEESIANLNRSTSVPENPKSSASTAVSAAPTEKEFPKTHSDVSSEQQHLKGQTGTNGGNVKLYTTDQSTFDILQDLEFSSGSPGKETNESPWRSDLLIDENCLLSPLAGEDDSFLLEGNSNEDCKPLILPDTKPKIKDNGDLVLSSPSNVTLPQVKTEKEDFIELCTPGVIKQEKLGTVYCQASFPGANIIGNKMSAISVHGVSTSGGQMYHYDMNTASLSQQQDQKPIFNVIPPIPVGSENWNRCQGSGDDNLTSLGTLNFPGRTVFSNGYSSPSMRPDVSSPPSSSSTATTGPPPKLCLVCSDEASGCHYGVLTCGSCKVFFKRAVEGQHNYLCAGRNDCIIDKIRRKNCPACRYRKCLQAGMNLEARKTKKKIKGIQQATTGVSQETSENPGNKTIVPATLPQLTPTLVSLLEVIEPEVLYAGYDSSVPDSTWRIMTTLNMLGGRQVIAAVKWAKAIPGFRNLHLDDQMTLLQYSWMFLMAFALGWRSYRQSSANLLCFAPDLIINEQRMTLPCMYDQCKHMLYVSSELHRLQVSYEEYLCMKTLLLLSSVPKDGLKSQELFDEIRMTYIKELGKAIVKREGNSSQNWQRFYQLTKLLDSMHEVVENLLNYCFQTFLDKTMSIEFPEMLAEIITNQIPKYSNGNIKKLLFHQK
Method: (§1) […]. The abuse liability screen included 44 targets (receptors, transporters, on gated-channel systems) related to the dopamine, norepinephrine, serotonin, gamma-aminobutyric acid (GABA), acetylcholine, N-methyl-D-aspartate (NMDA) cannabinoid and opioid neurotransmitter systems as recommended in FDA Draft guidance on Assessment of Abuse Potential of Drugs, January 2010.
(§2) Compound binding was calculated as a % inhibition of the binding of a radioactively labeled ligand specific for each target.
(§3) Results showing an inhibition or stimulation higher than 50% are considered to represent significant effects of the test compounds.

α1A (h) = molecular target: T2, α1A (h) (Homo sapiens, UniProt P35348); assay: Abuse liability binding screen, α1A (h) (antagonist radioligand); details: 2.5E−05M
T2 sequence (P35348 1-466): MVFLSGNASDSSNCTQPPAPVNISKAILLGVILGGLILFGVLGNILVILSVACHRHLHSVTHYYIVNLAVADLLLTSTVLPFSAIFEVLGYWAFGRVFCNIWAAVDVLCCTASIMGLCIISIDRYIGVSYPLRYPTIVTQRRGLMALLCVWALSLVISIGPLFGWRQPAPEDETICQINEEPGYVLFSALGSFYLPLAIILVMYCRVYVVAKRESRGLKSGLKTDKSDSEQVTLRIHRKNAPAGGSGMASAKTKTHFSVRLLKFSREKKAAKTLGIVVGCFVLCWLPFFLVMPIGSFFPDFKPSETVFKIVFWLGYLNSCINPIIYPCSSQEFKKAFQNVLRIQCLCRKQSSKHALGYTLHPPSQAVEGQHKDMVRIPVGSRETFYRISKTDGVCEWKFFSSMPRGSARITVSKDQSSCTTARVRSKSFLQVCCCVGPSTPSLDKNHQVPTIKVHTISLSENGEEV
Method: as §1, §2, §3

Ca^2+ channel (N) = Ca^2+ channel (N) (Rattus norvegicus, UniProt Q02294); assay: Abuse liability binding screen, Ca2+ channel (N) (antagonist radioligand); details: 2.5E−05M
Method: as §2

D1 (h) = D1 (h) (Homo sapiens, UniProt P21728); assay: Abuse liability binding screen, D1 (h) (antagonist radioligand); details: 2.5E−05M
Sequence of D1 (h) (P21728 whole entry): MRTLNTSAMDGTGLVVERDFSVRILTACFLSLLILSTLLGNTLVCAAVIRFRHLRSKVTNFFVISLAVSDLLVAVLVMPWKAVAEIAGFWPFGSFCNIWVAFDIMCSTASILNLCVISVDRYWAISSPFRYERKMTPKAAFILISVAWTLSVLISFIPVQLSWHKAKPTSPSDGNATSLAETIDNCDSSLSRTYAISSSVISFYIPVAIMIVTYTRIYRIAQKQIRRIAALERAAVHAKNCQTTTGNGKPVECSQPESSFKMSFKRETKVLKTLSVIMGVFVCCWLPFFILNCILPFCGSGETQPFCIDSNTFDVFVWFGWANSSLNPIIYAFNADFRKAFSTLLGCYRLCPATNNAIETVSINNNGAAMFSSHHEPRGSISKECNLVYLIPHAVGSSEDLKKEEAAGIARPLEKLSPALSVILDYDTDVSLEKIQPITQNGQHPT
Method: as §1, §2, §3

GABAA1 (h) (α1, β2, γ2) = GABAA1 (h) (α1, β2, γ2) (Homo sapiens, UniProt P14867+P18507+P47870); assay: Abuse liability binding screen, GABAA1 (h) (α1, β2, γ2) (antagonist radioligand); details: 2.5E−05M
Sequence of GABAA1 (h) (α1, β2, γ2) (P14867 28-456): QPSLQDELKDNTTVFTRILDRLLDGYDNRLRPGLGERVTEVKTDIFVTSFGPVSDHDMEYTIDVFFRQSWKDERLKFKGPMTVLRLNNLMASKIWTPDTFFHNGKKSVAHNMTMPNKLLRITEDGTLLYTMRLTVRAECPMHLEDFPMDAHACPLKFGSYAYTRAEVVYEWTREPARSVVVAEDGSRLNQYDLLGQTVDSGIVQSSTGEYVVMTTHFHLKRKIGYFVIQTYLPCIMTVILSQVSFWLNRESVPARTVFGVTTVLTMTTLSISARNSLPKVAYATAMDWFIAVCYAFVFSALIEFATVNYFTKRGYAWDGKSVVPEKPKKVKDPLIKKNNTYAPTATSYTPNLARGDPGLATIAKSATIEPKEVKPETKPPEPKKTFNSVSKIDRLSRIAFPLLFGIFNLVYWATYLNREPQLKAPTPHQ
Sequence of GABAA1 (h) (α1, β2, γ2) (P47870 25-512 limits assumed): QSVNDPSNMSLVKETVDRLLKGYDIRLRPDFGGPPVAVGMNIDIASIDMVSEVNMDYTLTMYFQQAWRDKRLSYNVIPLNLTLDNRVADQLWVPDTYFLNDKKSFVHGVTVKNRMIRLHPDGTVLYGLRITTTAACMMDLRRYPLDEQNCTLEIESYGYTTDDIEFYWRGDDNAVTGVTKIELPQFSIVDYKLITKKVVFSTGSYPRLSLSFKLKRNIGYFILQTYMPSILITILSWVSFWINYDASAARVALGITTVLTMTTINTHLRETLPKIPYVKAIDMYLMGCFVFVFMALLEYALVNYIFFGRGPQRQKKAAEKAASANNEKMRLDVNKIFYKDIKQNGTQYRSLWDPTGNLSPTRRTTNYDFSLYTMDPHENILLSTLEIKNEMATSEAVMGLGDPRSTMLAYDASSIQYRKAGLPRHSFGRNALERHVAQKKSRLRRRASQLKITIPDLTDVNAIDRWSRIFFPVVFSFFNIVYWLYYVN
Sequence of GABAA1 (h) (α1, β2, γ2) (P18507 40-475): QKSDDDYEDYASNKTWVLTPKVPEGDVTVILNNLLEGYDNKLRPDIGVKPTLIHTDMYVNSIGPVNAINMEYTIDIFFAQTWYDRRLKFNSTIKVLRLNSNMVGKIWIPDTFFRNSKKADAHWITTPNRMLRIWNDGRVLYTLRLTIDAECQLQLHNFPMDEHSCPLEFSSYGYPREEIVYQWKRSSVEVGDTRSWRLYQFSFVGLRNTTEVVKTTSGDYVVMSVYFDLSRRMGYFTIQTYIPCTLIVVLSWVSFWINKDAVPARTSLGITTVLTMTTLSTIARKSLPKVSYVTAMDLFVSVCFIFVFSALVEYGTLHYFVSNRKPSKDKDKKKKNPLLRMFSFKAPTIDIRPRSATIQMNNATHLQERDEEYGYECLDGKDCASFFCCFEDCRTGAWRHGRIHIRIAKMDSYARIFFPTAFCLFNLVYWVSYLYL
Method: as §1, §2, §3

[1] = molecular target: Norepinephrine transporter (h) (Homo sapiens, UniProt P23975); assay: Abuse liability binding screen, Norepinephrine transporter (h) (antagonist radioligand); details: 2.5E−05M
Sequence of Norepinephrine transporter (h) (P23975 whole entry): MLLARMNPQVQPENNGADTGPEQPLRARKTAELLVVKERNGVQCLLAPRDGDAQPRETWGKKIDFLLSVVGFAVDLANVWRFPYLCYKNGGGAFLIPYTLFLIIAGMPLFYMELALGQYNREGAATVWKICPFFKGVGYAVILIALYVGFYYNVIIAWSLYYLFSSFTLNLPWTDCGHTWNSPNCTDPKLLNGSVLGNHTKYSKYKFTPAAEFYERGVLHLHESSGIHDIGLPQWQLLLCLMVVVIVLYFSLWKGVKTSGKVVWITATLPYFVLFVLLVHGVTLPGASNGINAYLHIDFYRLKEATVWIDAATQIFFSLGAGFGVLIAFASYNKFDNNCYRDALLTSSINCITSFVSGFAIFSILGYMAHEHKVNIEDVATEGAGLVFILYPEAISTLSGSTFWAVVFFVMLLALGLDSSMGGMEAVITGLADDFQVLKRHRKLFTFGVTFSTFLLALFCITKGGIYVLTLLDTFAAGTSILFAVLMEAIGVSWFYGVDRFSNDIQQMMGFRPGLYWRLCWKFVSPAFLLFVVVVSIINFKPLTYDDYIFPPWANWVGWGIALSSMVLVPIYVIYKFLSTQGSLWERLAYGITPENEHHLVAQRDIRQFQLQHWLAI
Method: as §1, §2, §3

B2 (h) = B2 (h) (Homo sapiens, UniProt P07550); assay: Abuse liability binding screen, B2 (h) (agonist radioligand); details: 2.5E−05M
Sequence of B2 (h) (P07550 whole entry): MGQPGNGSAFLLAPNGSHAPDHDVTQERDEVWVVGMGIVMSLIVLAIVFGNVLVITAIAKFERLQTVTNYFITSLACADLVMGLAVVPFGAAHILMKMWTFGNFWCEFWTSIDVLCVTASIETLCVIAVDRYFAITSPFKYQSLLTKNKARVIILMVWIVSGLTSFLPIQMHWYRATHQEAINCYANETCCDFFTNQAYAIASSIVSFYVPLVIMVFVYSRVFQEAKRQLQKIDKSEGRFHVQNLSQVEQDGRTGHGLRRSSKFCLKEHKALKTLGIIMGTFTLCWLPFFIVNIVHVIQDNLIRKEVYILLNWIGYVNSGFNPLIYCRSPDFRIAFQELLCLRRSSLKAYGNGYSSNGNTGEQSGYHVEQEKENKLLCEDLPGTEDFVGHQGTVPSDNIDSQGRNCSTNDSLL
Method: as §1, §2, §3

D2S (h) = D2S (h) (Homo sapiens, UniProt P14416); assay: Abuse liability binding screen, D2S (h) (antagonist radioligand); details: 2.5E−05M
Sequence of D2S (h) (P14416 1-414 isoform P14416-2): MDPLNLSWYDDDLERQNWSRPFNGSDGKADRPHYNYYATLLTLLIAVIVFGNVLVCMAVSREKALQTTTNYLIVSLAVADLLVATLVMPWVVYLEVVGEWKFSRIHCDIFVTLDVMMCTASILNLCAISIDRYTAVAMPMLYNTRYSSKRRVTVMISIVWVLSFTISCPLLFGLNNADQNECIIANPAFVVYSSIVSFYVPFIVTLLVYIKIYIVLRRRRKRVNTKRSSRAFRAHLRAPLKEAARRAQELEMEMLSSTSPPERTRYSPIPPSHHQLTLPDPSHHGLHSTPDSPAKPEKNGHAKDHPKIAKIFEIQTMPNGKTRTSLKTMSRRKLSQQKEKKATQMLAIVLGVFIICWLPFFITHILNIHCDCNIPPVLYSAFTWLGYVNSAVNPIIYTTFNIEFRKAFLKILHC
Method: as §2

[2] = Plasma Cmax in HD patients; details: read-out: Cmax in HD patients, HD patients
M5 (h) = molecular target: T3, M5 (h) (Homo sapiens, UniProt P08912); assay: Abuse liability binding screen, M5 (h) receptor (antagonist radioligand); details: 2.5E−05M
T3 sequence (P08912 1-532): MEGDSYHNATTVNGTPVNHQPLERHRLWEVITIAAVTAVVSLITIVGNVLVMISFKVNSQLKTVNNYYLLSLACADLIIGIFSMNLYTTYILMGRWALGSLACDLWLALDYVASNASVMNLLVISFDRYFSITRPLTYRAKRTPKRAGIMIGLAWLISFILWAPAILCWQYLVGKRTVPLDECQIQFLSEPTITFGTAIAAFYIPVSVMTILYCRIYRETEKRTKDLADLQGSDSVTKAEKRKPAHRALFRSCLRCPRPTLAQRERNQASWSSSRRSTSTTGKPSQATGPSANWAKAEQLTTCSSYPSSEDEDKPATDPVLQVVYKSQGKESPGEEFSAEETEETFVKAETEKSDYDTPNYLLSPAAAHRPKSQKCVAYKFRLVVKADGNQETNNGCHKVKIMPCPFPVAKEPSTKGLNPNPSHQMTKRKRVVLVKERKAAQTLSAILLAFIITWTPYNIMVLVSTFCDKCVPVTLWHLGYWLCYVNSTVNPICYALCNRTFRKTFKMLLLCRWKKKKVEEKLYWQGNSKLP
Method: as §1, §2, §3

CB2 (h) = CB2 (h) (Homo sapiens, UniProt P34972); assay: Abuse liability binding screen, CB2 (h) (agonist radioligand); details: 2.5E−05M
Sequence of CB2 (h) (P34972 whole entry): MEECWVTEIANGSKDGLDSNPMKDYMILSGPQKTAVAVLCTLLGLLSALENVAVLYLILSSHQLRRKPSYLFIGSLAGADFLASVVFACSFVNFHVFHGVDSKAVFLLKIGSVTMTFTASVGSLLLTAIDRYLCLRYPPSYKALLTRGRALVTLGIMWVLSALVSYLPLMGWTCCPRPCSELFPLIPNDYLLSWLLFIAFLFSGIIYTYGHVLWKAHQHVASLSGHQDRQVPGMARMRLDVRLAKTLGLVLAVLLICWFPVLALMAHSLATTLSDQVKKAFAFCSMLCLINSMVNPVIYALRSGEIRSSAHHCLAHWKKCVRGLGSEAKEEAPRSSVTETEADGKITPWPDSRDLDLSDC
Method: as §1, §2, §3

For `O=C(O)[C@H]1O[C@@H](Oc2ccc3c4c2O[C@H]2[C@@H](O)CC[C@@]5(O)[C@@H](C3)N(CC3CCC3)CC[C@]425)[C@H](O)[C@@H](O)[C@@H]1O` [Compound M5, nalbuphine-3-beta-D-glucuronid], the “% Inhibition of Control Specific Binding 1st” value (GR (h)) was 0.8%, the “% Inhibition of Control Specific Binding 2nd” value (GR (h)) was −5.4% and the “% Inhibition of Control Specific Binding Mean” value (GR (h)) was −2.3%. The “% Inhibition of Control Specific Binding 1st” value (α1A (h)) was −0.1%, the “% Inhibition of Control Specific Binding 2nd” value (α1A (h)) was 3.4% and the “% Inhibition of Control Specific Binding Mean” value (α1A (h)) was 1.6%. For the same molecule, the “% Inhibition of Control Specific Binding 1st” value (Ca^2+ channel (N)) was −10.9%, the “% Inhibition of Control Specific Binding 2nd” value (Ca^2+ channel (N)) was 2.5% and the “% Inhibition of Control Specific Binding Mean” value (Ca^2+ channel (N)) was −4.2%. The “% Inhibition of Control Specific Binding 1st” value (D1 (h)) was −12.1%, the “% Inhibition of Control Specific Binding 2nd” value (D1 (h)) was 2.2% and the “% Inhibition of Control Specific Binding Mean” value (D1 (h)) was −5.0%. The “% Inhibition of Control Specific Binding 1st” value (GABAA1 (h) (α1, β2, γ2)) was −1.4%, the “% Inhibition of Control Specific Binding 2nd” value (GABAA1 (h) (α1, β2, γ2)) was −0.8% and the “% Inhibition of Control Specific Binding Mean” value (GABAA1 (h) (α1, β2, γ2)) was −1.1%. The “% Inhibition of Control Specific Binding 1st” value [1] was −11.4%, the “% Inhibition of Control Specific Binding 2nd” value [1] was 3.2% and the “% Inhibition of Control Specific Binding Mean” value [1] was −4.1%. For the same molecule, the “% Inhibition of Control Specific Binding 1st” value (B2 (h)) was −4.6%, the “% Inhibition of Control Specific Binding 2nd” value (B2 (h)) was 15.3% and the “% Inhibition of Control Specific Binding Mean” value (B2 (h)) was 5.4%. For the same molecule, the “% Inhibition of Control Specific Binding 1st” value (D2S (h)) was −1.6%, the “% Inhibition of Control Specific Binding 2nd” value (D2S (h)) was 7.2% and the “% Inhibition of Control Specific Binding Mean” value (D2S (h)) was 2.8%. For the same molecule, the Cmax [2] was 10.4 µM, the “% Inhibition of Control Specific Binding 1st” value (M5 (h)) was 9.9% and the “% Inhibition of Control Specific Binding 2nd” value (M5 (h)) was 0.7%. For the same molecule, the “% Inhibition of Control Specific Binding Mean” value (M5 (h)) was 5.3%, the “% Inhibition of Control Specific Binding 1st” value (CB2 (h)) was −13.1% and the “% Inhibition of Control Specific Binding 2nd” value (CB2 (h)) was −23.1%. The “% Inhibition of Control Specific Binding Mean” value (CB2 (h)) was −18.1%.
